Molecules are shown by their SMILES. Where two headings read alike, the source gives them in different places. Where only a bound is given, the exact number is not on record here.

The test has as its target T1, human BACE1 (sproBACE1) (Homo sapiens, UniProt P56817).
T1 construct: sBACE1, corresponding to amino acids 1-454; made in house; host or cells: Sf9 insect cells (baculovirus), secreted into the medium
Briefly: BACE-1 Peptide Hydrolysis Assay (HTRF). The test is classed as biochemical. The text has this:
A HindIII/PmeI fragment from pCDNA4-sBACE1myc/His was blunt ended using Klenow and subcloned into the Stu I site of PFASTBACI(A) (Invitrogen). A sBACE1mycHis recombinant bacmid was generated by transposition in DH10Bac cells (GIBCO/BRL). Subsequently, the sBACE1mycHis bacmid construct was transfected into sf9 cells using CellFectin (Invitrogen, San Diego, Calif.) in order to generate recombinant baculovirus. […] Five milliliters of high titer plaque purified sBACEmyc/His virus was used to infect 1 L of logarithmically growing sf9 cells for 72 hours. Intact cells were pelleted by centrifugation at 3000×g for 15 minutes. The supernatant, containing secreted sBACE1, was collected and diluted 50% v/v with 100 mM HEPES, pH 8.0. The diluted medium was loaded onto a Q-sepharose column. The Q-sepharose column was washed with Buffer A (20 mM HEPES, pH 8.0, 50 mM NaCl).
Proteins, were eluted from the Q-sepharose column with Buffer B (20 mM HEPES, pH 8.0, 500 mM NaCl). The protein peaks from the Q-sepharose column were pooled and loaded onto a Ni-NTA agarose column. The Ni-NTA column was then washed with Buffer C (20 mM HEPES, pH 8.0, 500 mM NaCl). Bound proteins were then eluted with Buffer D (Buffer C+250 mM imidazole).
Reactions were initiated by addition of substrate in a 5 μl aliquot resulting in a total volume of 25 μl. After 3 hr at 30° C. reactions were terminated by addition of an equal volume of 2× stop buffer containing 50 mM Tris-HCl pH 8.0, 0.5 M KF, 0.001% Brij-35, 20 μg/ml SA-XL665 (cross-linked allophycocyanin protein coupled to streptavidin; CIS-Bio International, France) (0.5 μg/well). Plates were shaken briefly and spun at 1200×g for 10 seconds to pellet all liquid to the bottom of the plate before the incubation.
Y=Bottom+(Top-Bottom)/(1+10^((LogEC50−X)*Hill Slope)); X is the logarithm of concentration of I, Y is the percent change in ratio and Y starts at bottom and goes to top with a sigmoid shape.

T1 sequence (P56817 22-454): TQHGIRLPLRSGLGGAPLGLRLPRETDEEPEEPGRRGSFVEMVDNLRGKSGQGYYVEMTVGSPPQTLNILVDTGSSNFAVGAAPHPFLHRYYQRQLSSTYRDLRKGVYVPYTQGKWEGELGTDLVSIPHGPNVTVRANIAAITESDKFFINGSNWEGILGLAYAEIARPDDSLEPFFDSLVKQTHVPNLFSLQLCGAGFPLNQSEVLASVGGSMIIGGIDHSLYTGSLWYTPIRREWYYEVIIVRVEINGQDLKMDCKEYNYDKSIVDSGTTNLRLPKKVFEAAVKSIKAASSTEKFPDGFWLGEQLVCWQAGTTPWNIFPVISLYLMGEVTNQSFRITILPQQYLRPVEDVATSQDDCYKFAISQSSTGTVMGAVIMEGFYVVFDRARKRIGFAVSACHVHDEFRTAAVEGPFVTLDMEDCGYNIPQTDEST

In general, Ki refers to a measure of affinity in units of concentration, obtained from inhibition or displacement. Take `CCCCS(=O)(=O)Nc1ccc(CN2C(=N)NC(c3ccccc3)(c3ccccc3)C2=O)cc1` [1-butanesulfonamide, N-[4-[(2-imino-5-oxo-4,4-diphenyl-1-imidazolidinyl)methyl]phenyl]-]: where the note is “read-out: BACE-1 Ki”, the Ki was less than 5 µM. `CN1C(=N)N[C@](CCC2CCCCC2)(C[C@H]2CCC[C@H](N[C@H]3CCNC3=O)C2)C1=O`: the Ki (read-out: BACE-1 Ki) was less than 5 µM. On the same count and under the same terms, to `CN1C(=N)N[C@](C)(c2cc(-c3cc(Cl)cc(C#N)c3)cs2)CC1=O` belongs less than 5 µM. On to `CN1C(=N)N[C@](C)(c2cc(-c3cncc(C#N)c3)cs2)[C@H](C2CCC2)C1=O`, for which the Ki (read-out: BACE-1 Ki) was less than 5 µM. As to `CN1C(=N)N[C@](C)(c2cc(-c3cccnc3)c3sccc3c2)CC1=O`, the Ki (read-out: BACE-1 Ki) was less than 5 µM. The same measure, in the same setting: the result for `N=C1NC(c2ccccc2)(c2ccccc2)C(=O)N1Cc1cccc(NS(=O)(=O)C2CC2)c1` reads less than 5 µM; that for `CN1C(=N)N[C@](CCC2CCCCC2)(C[C@H]2CCC[C@@H](NC(=O)c3ccnnc3)C2)C1=O`, less than 5 µM. Take `CN1C(=N)N[C@](C)(c2cc(Br)co2)CC1=O`: where the note is “read-out: BACE-1 Ki”, the Ki is less than 5 µM. On the same count and under the same terms, the result for `CCC[C@H]1C(=O)N(C)C(=N)N[C@]1(C)c1cccc(I)c1` reads less than 5 µM; that for `CC1(c2cccc(-c3cccc(Cl)c3)c2)NC(=N)N(CC2CCN(S(=O)(=O)c3ccccc3)C2)C1=O` (stereo not shown), less than 5 µM. Same read-out and setting: to `N=C1NC(c2ccccc2)(c2ccccc2)C(=O)N1Cc1cccc(NC(=O)Cc2cccs2)c1` belongs less than 5 µM; to `CCS(=O)(=O)Nc1cccc(CN2C(=N)NC(c3ccccc3)(c3ccccc3)C2=O)c1`, less than 5 µM; to `CN1C(=N)NC(c2ccccc2)(c2cccc(-c3nccnc3Cl)c2)C1=O` (racemic), less than 5 µM. Turning to `CN1C(=N)N[C@](CCC2CCCCC2)(C[C@H]2CCC[C@@H](NC(=O)Cc3ccc4ccccc4c3)C2)C1=O`, the Ki (read-out: BACE-1 Ki) is less than 5 µM. Regarding `CN1C(=N)N[C@](C)(c2cc(-c3cccc(Br)c3)nn2C)C(C)(C)C1=O`, for the setting “read-out: BACE-1 Ki”, the Ki was less than 5 µM.

For the compound `CN1C(=N)N[C@](C)(c2cc(-c3cccnc3F)cs2)[C@@H](C2CC2)C1=O`, the Ki (read-out: BACE-1 Ki) was less than 5 µM. On to `COc1cc(-c2cccc([C@@]3(C4CC4)NC(=N)N(C)C3=O)c2)ccc1O`, for which, under “read-out: BACE-1 Ki”, the Ki was less than 5 µM. The same measure, in the same setting: the result for `C[C@H]1C(=O)N(C)C(=N)N[C@]1(C)c1cc(-c2ccc(F)c(C#N)c2)cs1` reads less than 5 µM; that for `CN1C(=N)N[C@](C)(c2ncc(-c3cccc(Br)c3)s2)CC1=O`, less than 5 µM. Still for that read-out and setting: the result for `CN1C(=N)N[C@](C)(C[C@H]2CCC[C@@H](Nc3cnc4ccccc4n3)C2)C1=O` reads less than 5 µM; that for `CN1C(=N)N[C@](C)(c2cc(-c3cccc(Br)c3)ns2)CC1=O`, less than 5 µM; that for `CN1C(=N)N[C@](C)(c2cccc(-c3ccc4scnc4c3)c2)CC1=O`, less than 5 µM. Still for that read-out and setting: to `CN1C(=N)N[C@@](c2cccc(-c3cccnc3F)c2)(C2CC2)C1=O` belongs less than 5 µM; to `CN1C(=N)NC(c2cccc(Br)c2)(C2CCCC2)C1=O` (stereo not shown) [5-(3-BROMOPHENYL)-5-CYCLOPENTYL-2-IMINO-3-METHYL-4-IMIDAZOLIDINONE], less than 5 µM; to `CN1C(=N)N[C@](C)(c2ccc3c(cnn3CC3CCCC3)c2)CC1=O`, less than 5 µM.

For the compound `CCC1(c2cc(-c3cccnc3)cs2)CC(=O)N(C)C(=N)N1` (stereo not shown), the Ki (read-out: BACE-1 Ki) was less than 5 µM. `N=C1NC(c2ccccc2)(c2ccccc2)C(=O)N1CC1CCN(C(=O)CN)CC1`: the inhibitory constant (Ki) (read-out: BACE-1 Ki) is less than 5 µM. On the same count and under the same terms, the result for `C[C@H]1C(=O)N(C)C(=N)N[C@]1(C)c1cc2ccccc2s1` reads less than 5 µM; that for `COCC1CCCN1C(=O)c1cccc(CN2C(=N)NC(C)(c3cccc(-c4cccc(Cl)c4)c3)C2=O)c1` (stereo not shown), less than 5 µM; that for `Cc1ccc(N2CCC([C@H]3C(=O)N(C)C(=N)N[C@]3(C)c3cc(-c4cccc(C#N)c4)cs3)CC2)cc1`, less than 5 µM. For `CS(=O)(=O)Nc1cccc(CN2C(=N)NC(c3ccccc3)(c3ccccc3)C2=O)c1`, the Ki (read-out: BACE-1 Ki) is less than 5 µM.

Turning to `CN1C(=N)N[C@](CCc2ccccc2)(C[C@H]2CCC[C@@H](NC(=O)c3cccnc3)C2)C1=O`, the Ki (read-out: BACE-1 Ki) was less than 5 µM. Consider `CS(=O)(=O)N1CCCC(CCN2C(=N)NC(c3ccccc3)(c3ccccc3)C2=O)C1` (racemic), for which the Ki was less than 5 µM. As for `Cc1c(-c2ccc(F)c(C#N)c2)csc1[C@]1(C)CC(=O)N(C)C(=N)N1`, under “read-out: BACE-1 Ki”, the Ki is less than 5 µM. Turning to `CC(C)Oc1cccc([C@H]2C(=O)N(C)C(=N)N[C@]2(C)c2cc(-c3cccc(C#N)c3)cs2)c1`, under “read-out: BACE-1 Ki”, the Ki is less than 5 µM. For the compound `CN1C(=N)NC(c2ccccc2)(c2cccc(NC(=O)CC3CC3)c2)C1=O` (racemic), the Ki (read-out: BACE-1 Ki) is less than 5 µM. On the same count and under the same terms, the result for `N=C1NC(c2ccccc2)(c2ccccc2)C(=O)N1C[C@H]1CCCN(C(=O)C2CC2)C1` reads less than 5 µM; that for `N=C1NC(c2ccccc2)(c2cccc(-c3cccnc3)c2)C(=O)N1CC1CCNCC1` (stereo not shown), less than 5 µM; that for `CN1C(=N)N[C@](C)(c2csc3c(-c4ccsc4)cccc23)CC1=O`, less than 5 µM. Consider `CN1C(=N)NC(C)(c2cc(-c3cccc(C#N)c3)cs2)C(CC=Cc2ccc(F)cc2)C1=O` (stereo not shown), for which, where the note is “read-out: BACE-1 Ki”, the inhibitory constant (Ki) was less than 5 µM. Same read-out and setting: the result for `CN1C(=N)NC(c2ccccc2)(c2cccc(-c3cccc(CO)c3)c2)C1=O` (stereo not shown) reads less than 5 µM; that for `COc1cccc(-c2sc([C@]3(C)CC(=O)N(C)C(=N)N3)cc2C)c1`, less than 5 µM; that for `N=C1NC(c2ccccc2)(c2ccccc2)C(=O)N1CC1CCOCC1`, less than 5 µM. Still for that read-out and setting: to `Cc1c(-c2cccc(OC(F)(F)F)c2)csc1[C@]1(C)CC(=O)N(C)C(=N)N1` belongs less than 5 µM; to `CN1C(=N)N[C@](CCC2CCCCC2)(C[C@H]2CCC[C@@H](NS(=O)(=O)c3ccccc3)C2)C1=O`, less than 5 µM; to `CN1C(=N)N[C@](C)(c2cc(-c3ccc(F)c(C#N)c3)nn2C)CC1=O`, less than 5 µM. The same measure, in the same setting: the result for `COCC1CCCN1C(=O)c1cccc(CN2C(=N)NC(C)(c3ccccc3)C2=O)c1` (stereo not shown) reads less than 5 µM; that for `COc1cc(C#N)cc(-c2cc([C@@]3(C)NC(=N)N(C)C(=O)[C@@H]3C)sc2C)c1`, less than 5 µM; that for `CN1C(=N)NC(C)(c2cccc(-c3cc(Cl)ccc3CNC(=O)Cc3ccccc3)c2)C1=O` (stereo not shown) [benzeneacetamide, N-[[5-chloro-3′-(2-imino-1,4-dimethyl-5-oxo-4-imidazolidinyl)[1,1′-biphenyl]-2-yl]methyl]-], less than 5 µM. Regarding `CN1C(=N)NC(C)(c2cccc(-c3cncc(F)c3)c2)C1=O` (stereo not shown), the Ki (read-out: BACE-1 Ki) was less than 5 µM. The same measure, in the same setting: to `CN1C(=N)N[C@@](CCC2CCCCC2)(C[C@H]2CCC[C@@H](Nc3cnc4cc(Cl)ccc4n3)C2)C1=O` belongs less than 5 µM; to `Cc1c(-c2ccc(F)c(C#N)c2)sc([C@@]2(C)CC(=O)N(C)C(=N)N2)c1Cl`, less than 5 µM; to `CN1C(=N)N[C@](C)(c2cc(-c3ccc(F)c(C#N)c3)c(F)s2)[C@@H](C2CC2)C1=O`, less than 5 µM.

For `CN1C(=N)NC(CCc2ccccc2)(CC2CCCC(Nc3ccccn3)C2)C1=O` (stereo not shown), the Ki (read-out: BACE-1 Ki) was less than 5 µM. The same measure, in the same setting: to `CCC[C@H]1C(=O)N(C)C(=N)N[C@]1(C)c1cccc(-c2cccc(C#N)c2)c1` belongs less than 5 µM. The same measure, in the same setting: to `CC(C)N1C(=N)NC(c2cccc(-c3cccc(Cl)c3)c2)(C2CC2)C1=O` (stereo not shown) [4-imidazolidinone, 5-(3′-chloro[1,1′-biphenyl]-3-yl)-5-cyclopropyl-2-imino-3-(1-methylethyl)-] belongs less than 5 µM.

Regarding `COc1cncc(-c2csc(C3(C4CC4)NC(=N)N(C)C3=O)c2)c1` (stereo not shown), the Ki (read-out: BACE-1 Ki) is less than 5 µM. On to `CCCCS(=O)(=O)N1CCC(CN2C(=N)NC(c3ccccc3)(c3ccccc3)C2=O)CC1` [piperidine, 1-(butylsulfonyl)-4-[(2-imino-5-oxo-4,4-diphenyl-1-imidazolidinyl)methyl]-], for which the Ki (read-out: BACE-1 Ki) was less than 5 µM. Consider `COc1ccc(CNc2ccccc2)c(-c2cccc(C3(C)NC(=N)N(CC4CCN(C(C)=O)CC4)C3=O)c2)c1` (stereo not shown), for which the Ki is less than 5 µM. For the compound `N=C1NC(c2ccccc2)(c2ccccc2)C(=O)N1Cc1cccc(NC(=O)CC2CCCC2)c1`, the Ki (read-out: BACE-1 Ki) is less than 5 µM.

As to `N=C1NC(c2ccccc2)(c2ccccc2)C(=O)N1Cc1cccc(NC(=O)C2CCCCC2)c1`, the Ki (read-out: BACE-1 Ki) was less than 5 µM. On the same count and under the same terms, the result for `N=C1NC(c2ccccc2)(c2ccccc2)C(=O)N1CC1CCN(C(=O)CCN)CC1` reads less than 5 µM; that for `CC1(c2cccc(-c3cccnc3)c2)NC(=N)N(Cc2cccc(N3CCCCS3(=O)=O)c2)C1=O` (racemic), less than 5 µM; that for `CSc1cccc(-c2cccc([C@@]3(C4CC4)NC(=N)N(C)C3=O)c2)c1`, less than 5 µM. Same read-out and setting: the result for `CN1C(=N)N[C@](C)(c2c(F)cccc2F)[C@@H](c2ccc(C(F)(F)F)cc2)C1=O` reads less than 5 µM.

With `Cc1nn(C)c2sc([C@]3(C)CC(=O)N(C)C(=N)N3)cc12`, the Ki (read-out: BACE-1 Ki) is less than 5 µM.

For the compound `CN1C(=N)N[C@](C)(c2cnn(-c3cccc(I)c3)c2)CC1=O`, the Ki (read-out: BACE-1 Ki) was less than 5 µM.

The values are drawn from patent publication US8183252B2, “Heterocyclic aspartyl protease inhibitors” (Schering Corporation, priority 2007, dated 2012).
